Assay results from ChEMBL document CHEMBL1909046, “DrugMatrix in vitro pharmacology data”.

Key:
Substance-K receptor = biological target: T1, Substance-K receptor (Homo sapiens, UniProt P21452); assay type: cell membranes, CHO, Membrane; conditions: cho; also: in other assays of this panel Not Active means under 50% inhibition at 10 µM
T1 sequence (P21452 whole entry): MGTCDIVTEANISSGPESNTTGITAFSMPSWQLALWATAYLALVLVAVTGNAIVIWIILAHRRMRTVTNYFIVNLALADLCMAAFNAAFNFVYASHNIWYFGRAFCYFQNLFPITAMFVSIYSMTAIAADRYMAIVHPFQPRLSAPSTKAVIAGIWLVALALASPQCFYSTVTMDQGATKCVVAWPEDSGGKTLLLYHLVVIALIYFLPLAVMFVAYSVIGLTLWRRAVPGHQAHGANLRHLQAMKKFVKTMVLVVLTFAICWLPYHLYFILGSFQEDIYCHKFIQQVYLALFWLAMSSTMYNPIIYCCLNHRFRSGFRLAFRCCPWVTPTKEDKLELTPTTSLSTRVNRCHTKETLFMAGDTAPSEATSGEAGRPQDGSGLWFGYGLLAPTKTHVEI

[1] = DRUGMATRIX: Atrial Natriuretic Factor (ANF) radioligand binding (ligand: [125I] ANF (rat)); assay type: cell membranes, Cavia porcellus, Dunkin-Hartley, Adrenal gland, Membrane; conditions: Not Active = under 50% inhibition at 10 µM
Cytochrome P450 2E1 = Cytochrome P450 2E1 (Homo sapiens, UniProt P05181); conditions: bti-tn-5b1-4; also: in other assays of this panel Not Active means under 50% inhibition at 10 µM
[2] = DRUGMATRIX: Glutamate, AMPA radioligand binding (ligand: [3H] AMPA); assay type: cell membranes, Rattus norvegicus, Wistar, Cerebral cortex, Membrane; conditions: Not Active = under 50% inhibition at 10 µM
[3] = biological target: T2, Cysteinyl leukotriene receptor 1 (Homo sapiens, UniProt Q9Y271); assay type: cell membranes, CHO-K1, Membrane; conditions: cho-k1; also: in other assays of this panel Not Active means under 50% inhibition at 10 µM
T2 sequence (Q9Y271 whole entry): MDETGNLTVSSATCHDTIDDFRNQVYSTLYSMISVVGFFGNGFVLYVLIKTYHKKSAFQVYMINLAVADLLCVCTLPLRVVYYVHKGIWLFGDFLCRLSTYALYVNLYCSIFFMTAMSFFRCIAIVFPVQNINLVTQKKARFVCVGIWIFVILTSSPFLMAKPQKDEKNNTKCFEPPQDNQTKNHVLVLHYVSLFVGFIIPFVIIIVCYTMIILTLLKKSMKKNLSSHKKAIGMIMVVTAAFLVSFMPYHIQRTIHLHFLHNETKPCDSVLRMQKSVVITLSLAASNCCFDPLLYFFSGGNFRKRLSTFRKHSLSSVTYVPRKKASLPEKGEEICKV

[4] = DRUGMATRIX: Glutamate, NMDA, Agonism radioligand binding (ligand: [3H] CGP-39653); assay type: cell membranes, Rattus norvegicus, Wistar, Cerebral cortex, Membrane; conditions: Not Active = under 50% inhibition at 10 µM
Neutrophil elastase = biological target: T3, Neutrophil elastase (Homo sapiens, UniProt P08246); assay type: tissue-based;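 also: inhibition of neutrophil elastase enzyme activity, measured with a p-nitroanilide-linked peptide substrate; in other assays of this panel Not Active means under 50% inhibition at 10 µM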
T3 sequence (P08246 whole entry): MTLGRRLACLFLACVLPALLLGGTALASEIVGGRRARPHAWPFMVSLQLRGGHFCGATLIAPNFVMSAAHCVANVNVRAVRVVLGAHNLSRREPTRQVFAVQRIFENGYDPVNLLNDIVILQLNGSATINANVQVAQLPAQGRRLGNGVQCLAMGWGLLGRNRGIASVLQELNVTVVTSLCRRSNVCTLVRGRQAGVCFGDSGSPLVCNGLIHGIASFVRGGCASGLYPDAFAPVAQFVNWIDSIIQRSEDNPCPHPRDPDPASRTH

[5] = biological target: Tyrosine-protein kinase Fyn (Homo sapiens, UniProt P06241); experiment: biochemical; assay type: cell-based, Insect cells; conditions: insect cells
[6] = biological target: Tyrosine-protein kinase Lck (Homo sapiens, UniProt P06239); experiment: DRUGMATRIX: Protein Tyrosine Kinase, LCK enzyme inhibition (substrate: Poly(Glu:Tyr)); assay type: cell-based, Insect cells; conditions: insect cells; Not Active = under 50% inhibition at 10 µM
Calcitonin receptor = biological target: T4, Calcitonin receptor (Homo sapiens, UniProt P30988); assay type: cell membranes, Membrane; conditions: t47d; also: in other assays of this panel Not Active means under 50% inhibition at 10 µM
T4 sequence (P30988 whole entry): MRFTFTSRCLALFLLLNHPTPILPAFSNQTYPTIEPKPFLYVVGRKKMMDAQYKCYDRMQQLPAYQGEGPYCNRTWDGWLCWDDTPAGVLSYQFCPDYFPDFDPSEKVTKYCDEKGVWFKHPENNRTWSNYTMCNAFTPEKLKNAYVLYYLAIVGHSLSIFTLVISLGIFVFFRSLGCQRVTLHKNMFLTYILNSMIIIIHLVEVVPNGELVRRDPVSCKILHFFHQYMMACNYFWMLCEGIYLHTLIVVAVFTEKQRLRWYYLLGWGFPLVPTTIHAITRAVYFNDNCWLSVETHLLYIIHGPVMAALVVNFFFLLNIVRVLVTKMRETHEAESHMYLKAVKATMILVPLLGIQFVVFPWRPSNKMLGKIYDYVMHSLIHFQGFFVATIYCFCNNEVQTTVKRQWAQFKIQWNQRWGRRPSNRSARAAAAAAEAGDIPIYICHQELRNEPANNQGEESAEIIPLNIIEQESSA

[7] = biological target: T5, C-X-C chemokine receptor type 1 (Homo sapiens, UniProt P25024); also: in other assays of this panel Not Active means under 50% inhibition at 10 µM
T5 sequence (P25024 whole entry): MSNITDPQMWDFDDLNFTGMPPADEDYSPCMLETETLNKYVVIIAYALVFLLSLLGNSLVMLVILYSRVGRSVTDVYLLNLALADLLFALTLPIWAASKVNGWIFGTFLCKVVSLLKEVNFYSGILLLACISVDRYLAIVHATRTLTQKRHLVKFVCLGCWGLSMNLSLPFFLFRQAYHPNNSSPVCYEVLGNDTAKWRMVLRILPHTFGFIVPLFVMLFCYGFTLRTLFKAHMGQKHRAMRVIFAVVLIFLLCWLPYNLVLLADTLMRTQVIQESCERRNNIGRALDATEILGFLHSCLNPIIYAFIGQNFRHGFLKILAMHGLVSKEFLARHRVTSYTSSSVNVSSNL

Substance-P receptor = Substance-P receptor (Homo sapiens, UniProt P25103); assay type: cell membranes, CHO, Membrane; conditions: cho; also: in other assays of this panel Not Active means under 50% inhibition at 10 µM
[8] = biological target: 5-hydroxytryptamine receptor 2B (Homo sapiens, UniProt P41595); assay type: cell membranes, CHO-K1, Membrane; also: in other assays of this panel Not Active means under 50% inhibition at 10 µM
Carbonic anhydrase 2 = Carbonic anhydrase 2 (Homo sapiens, UniProt P00918); experiment: DRUGMATRIX: Carbonic Anhydrase II enzyme inhibition (substrate: 4-Nitrophenyl acetate (4-NPA)); assay type: tissue-based, Erythrocyte; conditions: erythrocyte; Not Active = under 50% inhibition at 10 µM
[9] = DRUGMATRIX: Glutamate, NMDA, Phencyclidine radioligand binding (ligand: [3H] TCP); assay type: cell membranes, Rattus norvegicus, Wistar, Cerebral cortex, Membrane; conditions: Not Active = under 50% inhibition at 10 µM

Substance-P receptor, sequence (P25103 whole entry): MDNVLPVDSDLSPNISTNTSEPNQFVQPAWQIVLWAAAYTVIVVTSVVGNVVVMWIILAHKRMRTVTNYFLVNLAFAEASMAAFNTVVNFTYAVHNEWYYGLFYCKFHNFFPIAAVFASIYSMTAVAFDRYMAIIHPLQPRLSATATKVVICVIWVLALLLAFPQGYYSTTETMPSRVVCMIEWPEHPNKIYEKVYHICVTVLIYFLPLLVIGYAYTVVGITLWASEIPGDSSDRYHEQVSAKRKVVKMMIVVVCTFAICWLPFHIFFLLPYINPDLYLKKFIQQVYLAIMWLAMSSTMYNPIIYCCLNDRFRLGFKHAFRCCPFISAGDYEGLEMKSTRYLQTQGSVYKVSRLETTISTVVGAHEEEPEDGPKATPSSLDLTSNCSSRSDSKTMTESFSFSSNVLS
Cytochrome P450 2E1, sequence (P05181 whole entry): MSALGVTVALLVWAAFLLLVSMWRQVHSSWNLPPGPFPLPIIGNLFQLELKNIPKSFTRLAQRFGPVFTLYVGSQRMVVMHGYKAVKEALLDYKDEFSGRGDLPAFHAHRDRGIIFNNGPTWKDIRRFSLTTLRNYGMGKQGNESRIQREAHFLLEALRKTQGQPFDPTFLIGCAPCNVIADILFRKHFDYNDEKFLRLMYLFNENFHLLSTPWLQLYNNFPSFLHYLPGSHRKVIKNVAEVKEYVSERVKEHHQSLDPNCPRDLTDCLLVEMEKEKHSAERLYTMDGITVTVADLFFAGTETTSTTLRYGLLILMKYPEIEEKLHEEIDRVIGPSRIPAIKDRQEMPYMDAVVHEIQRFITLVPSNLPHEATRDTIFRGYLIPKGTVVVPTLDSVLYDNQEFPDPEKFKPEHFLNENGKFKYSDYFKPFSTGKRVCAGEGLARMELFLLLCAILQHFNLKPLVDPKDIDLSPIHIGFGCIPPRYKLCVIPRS
Tyrosine-protein kinase Fyn, sequence (P06241 whole entry): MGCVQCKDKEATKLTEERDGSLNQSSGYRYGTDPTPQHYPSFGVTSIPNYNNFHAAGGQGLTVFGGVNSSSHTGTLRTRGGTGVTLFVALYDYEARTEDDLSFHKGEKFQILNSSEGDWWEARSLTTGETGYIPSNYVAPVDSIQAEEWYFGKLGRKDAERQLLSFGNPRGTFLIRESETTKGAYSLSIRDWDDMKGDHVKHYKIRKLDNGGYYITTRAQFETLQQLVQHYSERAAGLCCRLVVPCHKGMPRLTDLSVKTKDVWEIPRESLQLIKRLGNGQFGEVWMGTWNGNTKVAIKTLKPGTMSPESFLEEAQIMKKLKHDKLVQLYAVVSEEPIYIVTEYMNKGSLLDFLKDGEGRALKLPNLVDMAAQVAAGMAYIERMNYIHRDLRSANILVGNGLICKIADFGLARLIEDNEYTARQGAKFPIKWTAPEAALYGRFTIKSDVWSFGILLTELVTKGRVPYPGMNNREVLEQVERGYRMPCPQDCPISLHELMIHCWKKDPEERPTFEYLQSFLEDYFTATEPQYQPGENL
Tyrosine-protein kinase Lck, sequence (P06239 whole entry): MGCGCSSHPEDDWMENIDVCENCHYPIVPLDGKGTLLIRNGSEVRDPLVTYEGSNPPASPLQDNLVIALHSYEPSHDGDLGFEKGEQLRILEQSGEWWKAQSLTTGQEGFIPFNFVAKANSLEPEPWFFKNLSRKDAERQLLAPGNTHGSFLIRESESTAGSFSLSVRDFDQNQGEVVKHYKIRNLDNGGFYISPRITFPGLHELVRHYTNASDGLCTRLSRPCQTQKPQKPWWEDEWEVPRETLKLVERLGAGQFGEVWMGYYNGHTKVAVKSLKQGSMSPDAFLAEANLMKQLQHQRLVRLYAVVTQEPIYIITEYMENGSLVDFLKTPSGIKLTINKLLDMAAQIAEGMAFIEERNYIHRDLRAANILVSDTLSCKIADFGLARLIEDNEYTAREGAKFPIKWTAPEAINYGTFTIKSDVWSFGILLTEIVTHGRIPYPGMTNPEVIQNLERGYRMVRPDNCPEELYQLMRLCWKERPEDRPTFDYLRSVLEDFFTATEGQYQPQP
5-hydroxytryptamine receptor 2B, sequence (P41595 whole entry): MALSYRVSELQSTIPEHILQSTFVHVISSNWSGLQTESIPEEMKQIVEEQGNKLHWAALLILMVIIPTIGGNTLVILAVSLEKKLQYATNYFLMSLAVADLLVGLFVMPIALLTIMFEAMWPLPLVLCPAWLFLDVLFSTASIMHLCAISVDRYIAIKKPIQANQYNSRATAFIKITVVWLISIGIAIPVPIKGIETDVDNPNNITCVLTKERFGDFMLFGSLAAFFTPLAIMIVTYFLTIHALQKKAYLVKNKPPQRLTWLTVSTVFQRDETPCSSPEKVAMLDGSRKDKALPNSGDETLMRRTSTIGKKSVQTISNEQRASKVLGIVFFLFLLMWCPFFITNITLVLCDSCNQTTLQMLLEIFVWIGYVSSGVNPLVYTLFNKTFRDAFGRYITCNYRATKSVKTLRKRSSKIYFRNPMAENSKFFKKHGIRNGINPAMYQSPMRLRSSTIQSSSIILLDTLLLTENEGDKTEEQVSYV

Row | Compound | IC50 (Substance-K receptor) | IC50 [1] | Ki [1] | IC50 (Cytochrome P450 2E1) | Ki (Cytochrome P450 2E1) | IC50 [2] | Ki [2] | IC50 [3] | IC50 [4] | Ki [4] | IC50 (Neutrophil elastase) | IC50 [5] | IC50 [6] | IC50 (Calcitonin receptor) | IC50 [7] | IC50 (Substance-P receptor) | IC50 ([8]; cho-k1) | IC50 (Carbonic anhydrase 2) | IC50 [9] | Ki [9] | other results
1 | CC(C)[C@H](N)C(=O)OCCOCn1cnc2c(=O)nc(N)[nH]c21 [VALACYCLOVIR] | Not Active | Not Active | Not Active | Not Active | Not Active | Not Active | Not Active | Not Active | Not Active | Not Active | Not Active | Not Active | Not Active | Not Active | Not Active | Not Active | Not Active | Not Active | Not Active | Not Active | –
2 | NC(=O)c1ncn([C@@H]2O[C@H](CO)[C@@H](O)[C@H]2O)n1 [RIBAVIRIN] | Not Active | Not Active | Not Active | Not Active | Not Active | Not Active | Not Active | Not Active | Not Active | Not Active | Not Active | Not Active | Not Active | Not Active | Not Active | Not Active | Not Active | Not Active | Not Active | Not Active | –
3 | COC(=O)c1ccc(O)cc1 [METHYLPARABEN] | Not Active | Not Active | Not Active | Not Active | Not Active | Not Active | Not Active | Not Active | Not Active | Not Active | Not Active | Not Active | Not Active | Not Active | Not Active | Not Active | Not Active | Not Active | Not Active | Not Active | –
4 | COc1ccc(C(CN(C)C)C2(O)CCCCC2)cc1 (stereo unspecified) [VENLAFAXINE] | Not Active | Not Active | Not Active | Not Active | Not Active | Not Active | Not Active | Not Active | Not Active | Not Active | Not Active | Not Active | Not Active | Not Active | Not Active | Not Active | Not Active | Not Active | Not Active | Not Active | –
5 | COS(C)(=O)=O [METHANESULFONIC ACID METHYL ESTER] | Not Active | Not Active | Not Active | Not Active | Not Active | Not Active | Not Active | Not Active | Not Active | Not Active | Not Active | Not Active | Not Active | Not Active | Not Active | Not Active | Not Active | Not Active | Not Active | Not Active | –
6 | CC1=C(/C=C/C(C)=C/C=C/C(C)=C\C(=O)O)C(C)(C)CCC1 [ISOTRETINOIN] | Not Active | Not Active | Not Active | Not Active | Not Active | Not Active | Not Active | Not Active | Not Active | Not Active | Not Active | Not Active | Not Active | Not Active | Not Active | Not Active | – | Not Active | Not Active | Not Active | IC50 ([8]; read-out: IC50): 848 nM; Ki ([8]; read-out: Ki): 540 nM
7 | CO[C@@H]1[C@@H](O[C@@H]2O[C@H](C)[C@@H](O[C@H]3C[C@@](C)(O)[C@@H](OC(=O)CC(C)C)[C@H](C)O3)[C@H](N(C)C)[C@H]2O)[C@@H](CC=O)C[C@@H](C)[C@@H](O)/C=C/C=C/C[C@@H](C)OC(=O)C[C@H]1O [KITASAMYCIN] | Not Active | Not Active | Not Active | Not Active | Not Active | Not Active | Not Active | Not Active | Not Active | Not Active | Not Active | Not Active | Not Active | Not Active | Not Active | Not Active | Not Active | Not Active | Not Active | Not Active | –
8 | C[C@]12Cc3c[nH]nc3C[C@@H]1CC[C@@H]1[C@@H]2CC[C@@]2(C)[C@H]1CC[C@]2(C)O [STANOZOLOL] | Not Active | Not Active | Not Active | Not Active | Not Active | Not Active | Not Active | Not Active | Not Active | Not Active | Not Active | Not Active | Not Active | Not Active | Not Active | Not Active | Not Active | Not Active | Not Active | Not Active | –
